In patent publication US7855290B2, “Pyridine derivatives and pyrimidine derivatives (3)” (Eisai R&D Management Co., Ltd., priority 2005, dated 2010):

molecular target: T1, His6-HGFR (HGFR cytoplasmic domain) (Homo sapiens, UniProt P08581); test: Inhibitory activity against HGFR tyrosine kinase activity (HTRF); format: biochemical; settings: biotin-poly(GT), ATP, 30° C. 10 min
T1 construct: made in house; host or cells: Sf9 insect cells (Spodoptera frugiperda), baculovirus, pFastBac-HT vector
Procedure, shortened: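 Sf9-expressed, Ni-NTA-purified N-terminal His6-tagged HGFR cytoplasmic domain (from Lys974), 30 ng, phosphorylates 250 ng biotin-poly(GT) in Hepes pH 7.4 with MgCl2, MnCl2 and Na3VO4. Reaction started with 4 μM ATP stock, run 10 min at 30° C, stopped with EDTA. Phosphotyrosine is detected by HTRF.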

T1 sequence (P08581 956-1390 limits assumed): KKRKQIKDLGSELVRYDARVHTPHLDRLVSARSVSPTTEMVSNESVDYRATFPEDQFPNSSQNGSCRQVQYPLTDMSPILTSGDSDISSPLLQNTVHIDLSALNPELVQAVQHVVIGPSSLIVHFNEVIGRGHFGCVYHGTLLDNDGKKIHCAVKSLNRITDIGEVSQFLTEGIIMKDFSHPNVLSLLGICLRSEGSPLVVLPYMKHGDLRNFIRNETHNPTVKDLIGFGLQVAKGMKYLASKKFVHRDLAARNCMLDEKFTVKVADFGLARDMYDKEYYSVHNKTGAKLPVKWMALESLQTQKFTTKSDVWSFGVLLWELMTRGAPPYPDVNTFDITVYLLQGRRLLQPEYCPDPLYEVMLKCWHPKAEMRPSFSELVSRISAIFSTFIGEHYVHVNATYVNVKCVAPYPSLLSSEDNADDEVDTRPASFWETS

| Structure (SMILES) | IC50 |
| --- | --- |
| O=C(Nc1cc(Oc2cc(F)c(NC(=O)C3(C(=O)Nc4ccc(F)cc4)CC3)cc2F)ccn1)N1CC(CO)C1 [Example 96, N-(2,5-Difluoro-4-{[2-({[3-(hydroxymethyl)azetidin-1-yl]carbonyl}amino)pyridin-4-yl]oxy}phenyl)-N′-(4-fluorophenyl)cyclopropane-1,1-dicarboxamide] | 17 nM |
| O=C(Nc1cc(Oc2ccc(NC(=O)C3(C(=O)Nc4ccc(F)cc4)CC3)c(F)c2)ccn1)N1CCC(CO)CC1 [Example 83, N-(2-Fluoro-4-{[2-({[4-(hydroxymethyl)piperidin-1-yl]carbonyl}amino)pyridin-4-yl]oxy}phenyl)-N′-(4-fluorophenyl)cyclopropane-1,1-dicarboxamide] | 17 nM |
| O=C(Nc1cc(Oc2cc(F)c(NC(=O)C3(C(=O)Nc4ccc(F)cc4)CC3)cc2F)ncn1)N1CC(O)C1 [Example 97, N-{2,5-Difluoro-4-[(4-{[(3-hydroxyazetidin-1-yl)carbonyl]amino}pyrimidin-6-yl)oxy]phenyl}-N′-(4-fluorophenyl)cyclopropane-1,1-dicarboxamide] | 21 nM |
| O=C(Nc1cc(Oc2ccc(NC(=O)C3(C(=O)Nc4ccc(F)cc4)CC3)c(F)c2)ccn1)N1CC[C@H](O)C1 [Example 89, N-(2-Fluoro-4-{[2-({[(3S)-3-hydroxypyrrolidin-1-yl]carbonyl}amino)pyridin-4-yl]oxy}phenyl)-N′-(4-fluorophenyl)cyclopropane-1,1-dicarboxamide] | 13 nM |
| O=C(Nc1cc(Oc2cc(F)c(NC(=O)C3(C(=O)Nc4ccc(F)cc4)CC3)cc2F)ccn1)N1CC(CN2CCC2)C1 [Example 95, N-{4-[(2-{[3-(Azetidin-1-ylmethyl)azetidin-1-ylcarbonyl]amino}pyridin-4-yl)oxy]-2,5-difluorophenyl}-N′-(4-fluorophenyl)cyclopropane-1,1-dicarboxamide] | 50 nM |
| O=C(Nc1cc(Oc2cc(F)c(NC(=O)C3(C(=O)Nc4ccc(F)cc4)CC3)cc2F)ccn1)N1CCC1 [Example 90, N-[4-({2-[(Azetidin-1-ylcarbonyl)amino]pyridin-4-yl}oxy)-2,5-difluorophenyl]-N′-(4-fluorophenyl)cyclopropane-1,1-dicarboxamide] | 12 nM |
| CN(C)CC1CN(C(=O)Nc2cc(Oc3cc(F)c(NC(=O)C4(C(=O)Nc5ccc(F)cc5)CC4)cc3F)ccn2)C1 [Example 93, N-[2,5-Difluoro-4-({2-[({3-[(dimethylamino)methyl]azetidin-1-yl]carbonyl)amino]pyridin-4-yl}oxy)phenyl]-N′-(4-fluorophenyl)cyclopropane-1,1-dicarboxamide] | 42 nM |
| O=C(Nc1cc(Oc2ccc(NC(=O)C3(C(=O)Nc4ccc(F)cc4)CC3)cc2F)ccn1)N1CC(CO)C1 [Example 81, N-(3-Fluoro-4-{[2-({[3-(hydroxymethyl)azetidin-1-yl]carbonyl}amino)pyridin-4-yl]oxy}phenyl)-N′-(4-fluorophenyl)cyclopropane-1,1-dicarboxamide] | 19 nM |
| O=C(Nc1cc(Oc2ccc(NC(=O)C3(C(=O)Nc4ccc(F)cc4)CC3)cc2F)ccn1)N1CCC(CO)CC1 [Example 85, N-(3-Fluoro-4-{[2-({[-4-(hydroxymethyl)piperidin-1-yl]carbonyl}amino)pyridin-4-yl]oxy}phenyl)-N′-(4-fluorophenyl)cyclopropane-1,1-dicarboxamide] | 15 nM |
| CN1CCN(C2CCN(C(=O)Nc3cc(Oc4cc(F)c(NC(=O)C5(C(=O)Nc6ccc(F)cc6)CC5)cc4F)ccn3)CC2)CC1 [Example 92, N-(2,5-Difluoro-4-{[2-({[4-(4-methylpiperazin-1-yl)piperidin-1-yl]carbonyl}amino)pyridin-4-yl]oxy}phenyl)-N′-(4-fluorophenyl)cyclopropane-1,1-dicarboxamide] | 47 nM |
| O=C(Nc1cc(Oc2ccc(NC(=O)C3(C(=O)Nc4ccc(F)cc4)CC3)c(F)c2)ccn1)N1CCC(O)CC1 [Example 82, N-[2-Fluoro-4-[(2-{[(4-hydroxypiperidin-1-yl)carbonyl]amino}pyridin-4-yl)oxy]phenyl}-N′-(4-fluorophenyl)cyclopropane-1,1-dicarboxamide] | 16 nM |
| CN(C)CC1CN(C(=O)Nc2cc(Oc3cc(F)c(NC(=O)C4(C(=O)Nc5ccc(F)cc5)CC4)cc3F)ncn2)C1 [Example 98, N-[4-({4-[({3-[(Dimethylamino)methyl]azetidin-1-yl}carbonyl)amino]pyrimidin-6-yl}oxy)-2,5-difluorophenyl]-N′-(4-fluorophenyl)cyclopropane-1,1-dicarboxamide] | 67 nM |
| O=C(Nc1cc(Oc2ccc(NC(=O)C3(C(=O)Nc4ccc(F)cc4)CC3)cc2F)ccn1)N1CC[C@@H](O)C1 [Example 86, N-(3-Fluoro-4-{[2-({[(3R)-3-hydroxypyrrolidin-1-yl]carbonyl}amino)pyridin-4-yl]oxy}phenyl)-N′-(4-fluorophenyl)cyclopropane-1,1-dicarboxamide] | 12 nM |
| CN(C)CC1CCN(C(=O)Nc2cc(Oc3ccc(NC(=O)C4(C(=O)Nc5ccc(F)cc5)CC4)cc3F)ccn2)CC1 [Example 5, N-[4-({2-[({4-[(Dimethylamino)methyl]piperidin-1-yl}carbonyl)amino]pyridin-4-yl}oxy)-3-fluorophenyl]-N′-(4-fluorophenyl)cyclopropane-1,1-dicarboxamide] | 60 nM |
| O=C(Nc1cc(Oc2ccc(NC(=O)C3(C(=O)Nc4ccc(F)cc4)CC3)cc2F)ccn1)N1CC[C@H](O)C1 [Example 88, N-(3-Fluoro-4-{[2-({[(3S)-3-hydroxypyrrolidin-1-yl]carbonyl}amino)pyridin-4-yl]oxy}phenyl)-N′-(4-fluorophenyl)cyclopropane-1,1-dicarboxamide] | 16 nM |
| O=C(Nc1cc(Oc2ccc(NC(=O)C3(C(=O)Nc4ccc(F)cc4)CC3)c(F)c2)ccn1)N1CC[C@@H](O)C1 [Example 87, N-(2-Fluoro-4-{[2-({[(3R)-3-hydroxypyrrolidin-1-yl]carbonyl}amino)pyridin-4-yl]oxy}phenyl)-N′-(4-fluorophenyl)cyclopropane-1,1-dicarboxamide] | 9 nM |
| O=C(Nc1cc(Oc2ccc(NC(=O)C3(C(=O)Nc4ccc(F)cc4)CC3)cc2F)ccn1)N1CCC(O)CC1 [Example 84, N-[3-Fluoro-4-[(2-{[(4-hydroxypiperidin-1-yl)carbonyl]amino}pyridin-4-yl)oxy]phenyl}-N′-(4-fluorophenyl)cyclopropane-1,1-dicarboxamide] | 9 nM |
